Measured values from PMC9542353, “Design and synthesis of some new benzoylthioureido phenyl derivatives targeting carbonic anhydrase enzymes” (Journal of Enzyme Inhibition and Medicinal Chemistry, 2022).

What was measured:
[1] = biological target: hCA XII (Homo sapiens, UniProt O43570); assay: stopped flow CO2 hydrase assay, hCA XII
Source text: (§1) A stopped flow CO2 hydrase assay was adopted using an SX.18 MV-R Applied Photophysics (Oxford, UK) stopped-flow instrument to assess the inhibition against the various CA isozymes[33].

[2] = biological target: hCA IX (Homo sapiens, UniProt Q16790); assay: stopped flow CO2 hydrase assay, hCA IX
Source text: as §1

[3] = biological target: hCA II (Homo sapiens, UniProt P00918); assay: stopped flow CO2 hydrase assay, hCA II
Source text: as §1

[4] = biological target: hCA I (Homo sapiens, UniProt P00915); assay: stopped flow CO2 hydrase assay, hCA I; settings: for inhibitory activity against hCA I (in words): abstract statement
Chain of hCA I (P00915 whole entry): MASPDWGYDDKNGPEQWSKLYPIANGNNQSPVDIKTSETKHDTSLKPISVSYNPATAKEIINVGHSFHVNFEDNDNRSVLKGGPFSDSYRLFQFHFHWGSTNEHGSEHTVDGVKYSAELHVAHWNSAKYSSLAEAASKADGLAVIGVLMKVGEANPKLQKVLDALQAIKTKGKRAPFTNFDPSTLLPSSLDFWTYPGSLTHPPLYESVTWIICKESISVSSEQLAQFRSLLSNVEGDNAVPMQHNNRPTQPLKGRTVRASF
Source text: as §1

[5] = test system: hCAII; settings: read-out: IC50 against hCAII; cited from earlier work

Chain of hCA XII (O43570 25-354): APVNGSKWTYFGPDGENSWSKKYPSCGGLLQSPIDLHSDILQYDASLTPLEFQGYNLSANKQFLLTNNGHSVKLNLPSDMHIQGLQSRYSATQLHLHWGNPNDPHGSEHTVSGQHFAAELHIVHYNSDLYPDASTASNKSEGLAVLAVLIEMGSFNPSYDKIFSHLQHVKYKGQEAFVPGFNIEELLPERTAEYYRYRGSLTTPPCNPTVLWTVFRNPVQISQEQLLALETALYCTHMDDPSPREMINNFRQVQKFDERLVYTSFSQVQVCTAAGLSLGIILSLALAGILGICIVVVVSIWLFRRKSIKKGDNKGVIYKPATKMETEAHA

`NS(=O)(=O)c1ccc(NC(=S)NC(=O)c2ccccc2)cc1` [Compound 4a, N-[(4-Sulphamoylphenyl)carbamothioyl]benzamide] gave a Ki [1] of 57.4 nM and a Ki [2] of 106 nM.

For `NS(=O)(=O)c1ccc(NC(=S)NC(=O)c2ccc(Cl)cc2)cc1` [Compound 4b, 4-Chloro-N-[(4-sulfamoylphenyl)carbamothioyl]benzamide], the Ki [1] was over 100000 nM, the Ki [2] was 115 nM and the Ki [3] was 58.1 nM. For the same compound, the Ki [4] was 58.5 nM, the “inhibitory activity against hCA I (in words)” value (“inhibitory activity” for short) [4] was “significant inhibitory activity” and the melting point was 226 to 234 °C.

For `NS(=O)(=O)c1ccc(NC(=S)NC(=O)c2ccc(Cl)c(Cl)c2)cc1` [Compound 4c, 3,4-Dichloro-N-[(4-sulphamoylphenyl)carbamothioyl]benzamide], the Ki [1] was 88.1 nM, the Ki [2] was over 100000 nM and the Ki [3] was 90 nM. The Ki [4] was 40.4 nM, the “inhibitory activity” value [4] was “significant inhibitory activity” and the melting point was 206 to 208 °C.

In the case of `NS(=O)(=O)c1ccc(NC(=S)NC(=O)c2ccc(Br)cc2)cc1` [Compound 4d, 4-Bromo-N-[(4-sulfamoylphenyl)carbamothioyl]benzamide], the Ki [1] is reported as 82 nM, the Ki [2] is reported as over 100000 nM and the Ki [3] is reported as 67 nM. The Ki [4] was 65 nM, the “inhibitory activity” value [4] was “significant inhibitory activity” and the melting point was 215 to 217 °C.

For `O=C(O)c1ccc(NC(=S)NC(=O)c2ccccc2)cc1` [Compound 5a, 4-(3-Benzoylthioureido)benzoic acid], the Ki [1] was over 100000 nM, the Ki [2] was 2930 nM and the Ki [3] was 465 nM. It also gave a Ki [4] of 1500 nM and a melting point of 212 to 224 °C.

For `O=C(O)c1ccc(NC(=S)NC(=O)c2ccc(Cl)cc2)cc1` [Compound 5b, 4-[3-(4-Chlorobenzoyl)thioureido]benzoic acid], the Ki [1] was over 100000 nM, the Ki [2] was over 100000 nM and the Ki [3] was 5540 nM. For the same compound, the Ki [4] was 8800 nM and the melting point was 232 to 240 °C.

For `O=C(O)c1ccc(NC(=S)NC(=O)c2ccc(Cl)c(Cl)c2)cc1` [Compound 5c, 4-[3-(3,4-Dichlorobenzoyl)thioureido]benzoic acid], the Ki [1] was over 100000 nM, the Ki [2] was 1740 nM and the Ki [3] was 6000 nM. For the same compound, the Ki [4] was over 100000 nM and the melting point was 216 to 218 °C.

For `O=C(O)c1ccc(NC(=S)NC(=O)c2ccc(Br)cc2)cc1` [Compound 5d, 4-[3-(4-Bromobenzoyl)thioureido]benzoic acid], the Ki [1] was over 100000 nM, the Ki [2] was over 100000 nM and the Ki [3] was over 100000 nM. For the same compound, the Ki [4] was 5560 nM, the “inhibitory activity” value [4] was “significant inhibitory activity” and the melting point was 206 to 215 °C.

With `CCOC(=O)c1ccc(NC(=S)NC(=O)c2ccccc2)cc1` [Compound 6a, Ethyl-4-(3-benzoylthioureido)benzoate] the Ki [1] was over 100000 nM, the Ki [2] was 1740 nM and the Ki [3] was over 100000 nM. The Ki [4] was over 100000 nM and the melting point was 223 to 235 °C.

`CCOC(=O)c1ccc(NC(=S)NC(=O)c2ccc(Cl)cc2)cc1` [Compound 6b, Ethyl 4-[3-(4-chlorobenzoyl)thioureido]benzoate] showed a Ki [1] of over 100000 nM, a Ki [2] of 1400 nM and a Ki [3] of over 100000 nM. The Ki [4] was over 100000 nM and the melting point was 219 to 221 °C.

Work on `CCOC(=O)c1ccc(NC(=S)NC(=O)c2ccc(Cl)c(Cl)c2)cc1` [Compound 6c, Ethyl 4-[3-(3,4-dichlorobenzoyl)thioureido]benzoate] yielded a Ki [1] of over 100000 nM, a Ki [2] of 239 nM and a Ki [3] of over 100000 nM. For the same compound, the Ki [4] was 809 nM and the melting point was 216 to 218 °C.

In the case of `CCOC(=O)c1ccc(NC(=S)NC(=O)c2ccc(Br)cc2)cc1` [Compound 6d, Ethyl-4-[3-(4-bromobenzoyl)thioureido]benzoate], the Ki [1] is reported as over 100000 nM, the Ki [2] is reported as over 100000 nM and the Ki [3] is reported as 31 nM. It also gave a Ki [4] of 85.4 nM and a melting point of 218 to 220 °C.

In the case of `COc1cc(NC(C)=O)ccc1C(=O)NC(=S)Nc1ccc(S(N)(=O)=O)cc1` [Compound 12a, 4-Acetamido-2-methoxy-N-[(4-sulfamoylphenyl)carbamothioyl]benzamide], the Ki [1] is reported as 83 nM, the Ki [2] is reported as 32.2 nM and the Ki [3] is reported as 15.5 nM. The Ki [4] was 67.6 nM, the “inhibitory activity” value [4] was “significant inhibitory activity” and the melting point was 225 to 227 °C.

For `COc1cc(NC(=O)C(C)C)ccc1C(=O)NC(=S)Nc1ccc(S(N)(=O)=O)cc1` [Compound 12b, 4-Isobutyramido-2-methoxy-N-[(4-sulfamoylphenyl)carbamothioyl] benzamide], the Ki [1] was over 100000 nM, the Ki [2] was 1780 nM and the Ki [3] was 2770 nM. The Ki [4] was over 100000 nM and the melting point was 248 to 250 °C.

With `COc1cc(NC(=O)c2ccc(C)cc2)ccc1C(=O)NC(=S)Nc1ccc(S(N)(=O)=O)cc1` [Compound 12c, 2-Methoxy-4-(4-methylbenzamido)-N-[(4-sulfamoylphenyl)carbamothioyl] benzamide] the Ki [1] was 226 nM, the Ki [2] was 144 nM and the Ki [3] was 94.2 nM. The Ki [4] was 91 nM, the “inhibitory activity” value [4] was “significant inhibitory activity” and the melting point was 250 to 252 °C.

With `COc1cc(NC(C)=O)ccc1C(=O)NC(=S)Nc1ccc(C(=O)O)cc1` [Compound 13a, 4-[3-(4-Acetamido-2-methoxybenzoyl)thioureido]benzoic acid] the Ki [1] was over 100000 nM, the Ki [2] was 1090 nM and the Ki [3] was 647 nM. The Ki [4] was 1710 nM and the melting point was 245 to 247 °C.

`COc1cc(NC(=O)C(C)C)ccc1C(=O)NC(=S)Nc1ccc(C(=O)O)cc1` [Compound 13b] gave a Ki [1] of over 100000 nM, a Ki [2] of 289 nM and a Ki [3] of 193 nM. For the same compound, the Ki [4] was over 100000 nM and the melting point was 256 to 258 °C.

Work on `COc1cc(NC(=O)c2ccc(C)cc2)ccc1C(=O)NC(=S)Nc1ccc(C(=O)O)cc1` [Compound 13c, 4-(3-(2-Methoxy-4-(4-methylbenzamido)benzoyl)thioureido]benzoic acid] yielded a Ki [1] of over 100000 nM, a Ki [2] of 802 nM and a Ki [3] of 504 nM. It also gave a Ki [4] of over 100000 nM and a melting point of 281 to 283 °C.

For `CCOC(=O)c1ccc(NC(=S)NC(=O)c2ccc(NC(C)=O)cc2OC)cc1` [Compound 14a, Ethyl-4-[3-(4-acetamido-2-methoxybenzoyl)thioureido]benzoate], the Ki [1] was over 100000 nM, the Ki [2] was 1150 nM and the Ki [3] was over 100000 nM. It also gave a Ki [4] of over 100000 nM and a melting point of 237 to 239 °C.

With `CCOC(=O)c1ccc(NC(=S)NC(=O)c2ccc(NC(=O)C(C)C)cc2OC)cc1` [Compound 14b, Ethyl-4-[3-(4-isobutyramido-2-methoxybenzoyl)thioureido]benzoate] the Ki [1] was over 100000 nM, the Ki [2] was 1500 nM and the Ki [3] was over 100000 nM. The Ki [4] was over 100000 nM and the melting point was 245 to 247 °C.

Compound `CCOC(=O)c1ccc(NC(=S)NC(=O)c2ccc(NC(=O)c3ccc(C)cc3)cc2OC)cc1` [Compound 14c, Ethyl-4-[3-(2-methoxy-4-(4-methylbenzamido)benzoyl)thioureido]benzoate] has a Ki [1] of over 100000 nM, a Ki [2] of 1370 nM and a Ki [3] of 2020 nM. For the same compound, the Ki [4] was over 100000 nM and the melting point was 257 to 259 °C.

For `O=C(NC(=S)Nc1ccccc1)c1ccc(C(F)(F)F)cc1` [III], the IC50 [5] is listed as 2480 nM.

In the case of `COc1ccc(NC(=S)NC(=O)c2ccc(C(F)(F)F)cc2)cc1OC` [II], the IC50 [5] is listed as 1900 nM.

For `CC(=O)NC(=S)Nc1ccc(S(N)(=O)=O)cc1` [IV], the IC50 [5] is listed as 2140 nM.
